{
  "source": "patent US5126057A",
  "about": "“Disinfecting with N,N'-dihaloimidazolidin-4-ones” (Auburn Research Foundation, priority 1991, dated 1992)",
  "key": {"[1]": {"system": "Oscillatoria lutea, Anabaena cylindrica, and Chlorella pyrenoidosa", "assay": "Algastatic effect on heavy algal growth in aquariums", "type": "cell-based", "settings": "for regrowth of algae (in words): after total elapsed time of 19 days, all titratable chlorine disappeared; for Percent Total Potential Positive Chlorine Remaining: algal aquarium; for algastatic / algacidal effect (in words): extended periods, water containing heavy algal growth; for decoloration / bleaching of algae (in words): within 2 days for Cpd 1 (9.9 mg per liter Cl+), Cpd 3 at 4.9 mg per liter", "text": "Two 10 gallon aquariums each containing 35 liters of Bristol's solution (described by R. C. Starr in the article \"The Culture Collection of Algae at the University of Texas\", J. Phycology, 14, 47 (1978)) at pH 6.8 were inoculated with a mixture of three species of algae; Oscillatoria lutea, Anabaena cylindrica, and Chlorella pyrenoidosa. The 2 aquariums were continually aerated and each illuminated by a 20 watt Gro-lux lamp placed 15 centimeters from the side of the aquarium. The experiment was conducted at ambient temperature which ranged between 21° and 24° C.\nAfter a 34 day growth period the heavy algal cell density was measured by direct counts using a hemacytometer. The cell density in aquarium A at this time was 2.2×10^7 cells per milliliter, while that in aquarium B was 6.6×10^6 cells per milliliter. The absorbances of the two solutions at 750 nanometers were also measured at that time and found to be 0.273 for aquarium A and 0.112 for aquarium B. The absorbance at 750 nanometers has been employed as an index of algal chlorophyll concentration (\"Standard methods for the Examination of Water and Wastewater\", 16th edition, American Public Health Association, Washington, D.C., 1985, p. 1070). Then a solution of 1.042 grams of 1,3-dichloro-2,2,5,5-tetramethylimidazolidin-4-one (Compound 1) as prepared in example 3 in 500 milliliters of demand-free water (DFW) was added to aquarium A resulting in an initial potential positive chlorine concentration of 9.9 milligrams per liter in that aquarium. Similarly a solution of 0.872 gram of 1-chloro-2,2,5,5-tetramethylimidazolidin-4-one (Compound 3) as prepared in example 6 in 500 milliliters of DFW was added to aquarium B resulting in an initial potential positive chlorine concentration of 4.9 milligrams per liter in that aquarium. The aquariums were sampled periodically and analyzed for algal growth by means of absorbance measurements at 750 nanometers using a Milton Roy Spectronic 301 spectrophotometer and for total potential positive chlorine concentration using standard iodometric titration. […] Following the loss of all total potential positive chlorine from the aquariums, second additions of 0.87 grams of Compound 3 and of 1.042 grams of Compound 1 were made to aquariums B and A, respectively."}, "[2]": {"assay": "Stability in demand-free water exposed to direct sunlight", "type": "physicochemical", "settings": "pH 7; for remaining at 3 h / remaining at 5 h / remaining at 10 h: demand-free water, direct sunlight", "procedure": "The stabilities of compounds 1,5, and free chlorine from calcium hypochlorite (Compound 2) in water exposed to direct sunlight were determined. Each compound at the 10 milligrams per liter total chlorine concentration level (or at the molar equivalent for total halogen for Compound 5) was dissolved in 85 milliliters of demand-free water buffered at pH 7.0 in separate 100 milliliter beakers which were placed in a temperature-controlled water bath (22°-24° C.), and the bath containing the solutions was placed on the roof of the chemistry building at Auburn University exposed to direct sunlight during August 1988. Total potential positive halogen assays were made periodically on aliquots withdrawn over a 10 hour period using the standard iodometric titration technique."}, "[3]": {"system": "Staphylococcus aureus (ATCC 25923)", "assay": "Disinfection of hard surfaces (modified AOAC Use-Dilution Method, stainless steel cylinders)", "type": "cell-based", "settings": "for bacterial growth after contact (in words): 25, 50, 100, 200 ppm positive chlorine (molar equivalents for Cpd 5), pH 7.0, 10 minutes contact; for minimal effective concentration: Staphylococcus aureus, ATCC25923, 10 min, 10 minutes contact, pH 7.0, read-out: effective hard surface disinfectant concentration", "procedure": "The efficacies of compounds 1 and 5 as hard surface disinfectants were assessed by using a modification of the AOAC Use-Dilution Method as described in \"Official Methods of Analysis of the Association of Official Analytical Chemists\", ed. W. Horwitz, A.O.A.C., Washington, D.C., 1989, pp. 58-59. Small stainless steel cylinders (Penicylinders from Fisher Scientific) were cleaned with 1 Normal sodium hydroxide solution, sterilized in 0.1 percent asparagine in an autoclave, and cooled to ambient temperature. The cylinders were then inoculated with Staphylococcus aureus (ATCC 25923) by placing them in a 24 hour old nutrient broth culture of the organism for 15 minutes. The cylinders were aseptically removed from the broth, placed in a sterile petri dish upon filter paper for draining, and dried at 37° C. in an incubator for 60 minutes.\nThe halogenated imidazolidin-4-ones were dissolved in demand-free water buffered at pH 7.0 at concentrations of 25, 50, 100, and 200 parts per million of potential ionizable positive chlorine for Compound 1 (or molar equivalents of total potential ionizable positive halogen for Compound 5), and 2 milliliter aliquots of the solutions were added to each of a series of sterile culture tubes. Control solutions of pH 7.0 demand-free water were also added to a series of tubes. At least 10 tubes at each concentration of disinfectant were employed. Then an inoculated metal cylinder was added to each tube containing disinfectant and each control tube at exactly 30 second intervals. After exactly 10 minutes contact time the cylinders were removed from the tubes at 30 second intervals in the same order as was used for their addition, i.e. the contact time was 10 minutes for all cylinders. Each metal cylinder was placed into a culture tube containing 3 milliliters of nutrient broth and 0.01 normal sodium thiosulfate to quench disinfectant action. All tubes were examined for bacterial growth (inspected for the presence or absence of turbidity) following 48 hours of incubation at 37° C."}, "[4]": {"settings": "day 0, initial 9.9 (Cpd 1) or 4.9 (Cpd 3) mg per liter"}, "[5]": {"settings": "day 6 (then additional 0.87 grams of Cpd 3 added), 8640 min"}, "[6]": {"settings": "day 10 (then additional 1.042 grams of Cpd 1 added), 14400 min"}, "[7]": {"settings": "day 0 (before addition), initial Cl+ 9.9 (Cpd 1) or 4.9 (Cpd 3) mg per liter"}, "[8]": {"settings": "day 1, initial Cl+ 9.9 (Cpd 1) or 4.9 (Cpd 3) mg per liter"}, "[9]": {"settings": "day 3, initial Cl+ 9.9 (Cpd 1) or 4.9 (Cpd 3) mg per liter"}, "[10]": {"settings": "day 8, second addition of Cpd 3 at day 6"}, "[11]": {"settings": "day 10, second addition of Cpd 3 at day 6, of Cpd 1 at day 10"}, "[12]": {"settings": "day 19, after second additions, no titratable chlorine left"}},
  "note": "Like-named read-outs stand apart in the source and are kept apart here.",
  "data": [
    {"smiles": "CC1(C)NC(=O)C(C)(C)N1Cl", "note": "[Compound 3, 1-chloro-2,2,5,5-tetramethylimidazolidin-4-one]", "values": [
      {"measurement": "regrowth of algae (in words)", "setting": "[1]", "value": "the algae began to grow again"},
      {"measurement": "Percent Total Potential Positive Chlorine Remaining", "setting": "[1]; [4]", "value": 100.0, "unit": "%"},
      {"measurement": "Percent Total Potential Positive Chlorine Remaining", "setting": "[1]; day 1", "value": 71.8, "unit": "%"},
      {"measurement": "Percent Total Potential Positive Chlorine Remaining", "setting": "[1]; day 3", "value": 31.0, "unit": "%"},
      {"measurement": "Percent Total Potential Positive Chlorine Remaining", "setting": "[1]; [5]", "value": 0.0, "unit": "%"},
      {"measurement": "Percent Total Potential Positive Chlorine Remaining", "setting": "[1]; day 7", "value": 77.3, "unit": "%"},
      {"measurement": "Percent Total Potential Positive Chlorine Remaining", "setting": "[1]; day 8", "value": 47.6, "unit": "%"},
      {"measurement": "Percent Total Potential Positive Chlorine Remaining", "setting": "[1]; [6]", "value": 17.3, "unit": "%"},
      {"measurement": "Percent Total Potential Positive Chlorine Remaining", "setting": "[1]; day 16", "value": 0.0, "unit": "%"},
      {"measurement": "A750 (Absorbance at 750 Nanometers)", "setting": "[1]; [7]", "value": 0.112},
      {"measurement": "A750 (Absorbance at 750 Nanometers)", "setting": "[1]; [8]", "value": 0.063},
      {"measurement": "A750 (Absorbance at 750 Nanometers)", "setting": "[1]; [9]", "value": 0.066},
      {"measurement": "A750 (Absorbance at 750 Nanometers)", "setting": "[1]; [10]", "value": 0.021},
      {"measurement": "A750 (Absorbance at 750 Nanometers)", "setting": "[1]; [11]", "value": 0.012},
      {"measurement": "A750 (Absorbance at 750 Nanometers)", "setting": "[1]; day 16, after second additions", "value": 0.007},
      {"measurement": "A750 (Absorbance at 750 Nanometers)", "setting": "[1]; [12]", "value": 0.010},
      {"measurement": "algastatic / algacidal effect (in words)", "setting": "[1]", "value": "algastatic, but not algacidal"},
      {"measurement": "decoloration / bleaching of algae (in words)", "setting": "[1]", "value": "a longer time period for decoloration"}
    ]},
    {"smiles": "CC1(C)C(=O)N(Cl)C(C)(C)N1Br", "note": "[Compound 5, 1-bromo-3-chloro-2,2,5,5-tetramethylimidazolidin-4-one]", "values": [
      {"measurement": "remaining at 3 h", "setting": "[2]", "value": 60.5, "unit": "%"},
      {"measurement": "remaining at 5 h", "setting": "[2]", "value": 45.7, "unit": "%"},
      {"measurement": "remaining at 10 h", "setting": "[2]", "value": 14.9, "unit": "%"},
      {"measurement": "stability (in words)", "setting": "[2]", "value": "less stable than Compound 1, but significantly more stable than free chlorine"},
      {"measurement": "bacterial growth after contact (in words)", "setting": "[3]", "value": "none of the tubes containing compounds 1 or 5 at any of the concentration levels exhibited bacterial growth"},
      {"measurement": "minimal effective concentration", "setting": "[3]; total potential positive halogen", "value": "≤ 40.7", "unit": "µg/mL"}
    ]},
    {"smiles": "CC1(C)C(=O)N(Cl)C(C)(C)N1Cl", "note": "[Compound 1, 1,3-dichloro-2,2,5,5-tetramethylimidazolidin-4-one]", "values": [
      {"measurement": "remaining at 3 h", "setting": "[2]", "value": 84.9, "unit": "%"},
      {"measurement": "remaining at 5 h", "setting": "[2]", "value": 74.8, "unit": "%"},
      {"measurement": "remaining at 10 h", "setting": "[2]", "value": 51.2, "unit": "%"},
      {"measurement": "stability (in words)", "setting": "[2]", "value": "much more stable than free chlorine"},
      {"measurement": "time to noticeable loss of green coloration", "setting": "[1]; Cpd 1 at 9.9 mg per liter Cl+", "value": "≤ 4", "unit": "h"},
      {"measurement": "regrowth of algae (in words)", "setting": "[1]", "value": "the algae began to grow again"},
      {"measurement": "Percent Total Potential Positive Chlorine Remaining", "setting": "[1]; [4]", "value": 100.0, "unit": "%"},
      {"measurement": "Percent Total Potential Positive Chlorine Remaining", "setting": "[1]; day 1", "value": 82.9, "unit": "%"},
      {"measurement": "Percent Total Potential Positive Chlorine Remaining", "setting": "[1]; day 3", "value": 44.4, "unit": "%"},
      {"measurement": "Percent Total Potential Positive Chlorine Remaining", "setting": "[1]; [5]", "value": 13.8, "unit": "%"},
      {"measurement": "Percent Total Potential Positive Chlorine Remaining", "setting": "[1]; day 7", "value": 7.0, "unit": "%"},
      {"measurement": "Percent Total Potential Positive Chlorine Remaining", "setting": "[1]; day 8", "value": 3.4, "unit": "%"},
      {"measurement": "Percent Total Potential Positive Chlorine Remaining", "setting": "[1]; [6]", "value": 0.0, "unit": "%"},
      {"measurement": "Percent Total Potential Positive Chlorine Remaining", "setting": "[1]; day 16", "value": 34.7, "unit": "%"},
      {"measurement": "A750 (Absorbance at 750 Nanometers)", "setting": "[1]; [7]", "value": 0.273},
      {"measurement": "A750 (Absorbance at 750 Nanometers)", "setting": "[1]; [8]", "value": 0.064},
      {"measurement": "A750 (Absorbance at 750 Nanometers)", "setting": "[1]; [9]", "value": 0.081},
      {"measurement": "A750 (Absorbance at 750 Nanometers)", "setting": "[1]; [10]", "value": 0.058},
      {"measurement": "A750 (Absorbance at 750 Nanometers)", "setting": "[1]; [11]", "value": 0.038},
      {"measurement": "A750 (Absorbance at 750 Nanometers)", "setting": "[1]; day 16, after second additions", "value": 0.020},
      {"measurement": "A750 (Absorbance at 750 Nanometers)", "setting": "[1]; [12]", "value": 0.055},
      {"measurement": "algastatic / algacidal effect (in words)", "setting": "[1]", "value": "algastatic, but not algacidal"},
      {"measurement": "decoloration / bleaching of algae (in words)", "setting": "[1]", "value": "only white turbidity resulting from the bleaching of the algae"},
      {"measurement": "bacterial growth after contact (in words)", "setting": "[3]", "value": "none of the tubes containing compounds 1 or 5 at any of the concentration levels exhibited bacterial growth"},
      {"measurement": "minimal effective concentration", "setting": "[3]; potential ionizable positive chlorine", "value": "≤ 25", "unit": "µg/mL"}
    ]}
  ]
}
